Experimental data as given in patent publication US9029414B2, “Triterpenoid compounds and methods of use thereof” (Biotechnology Research Corporation, priority 2008, dated 2015).

Assays:
BALB/c mice = assay: Murine model of oxazolone-induced ear edema; type: in vivo; conditions: topical, positive control
Experimental: This is a contract research performed by Washington Biotechnology Inc., Columbia, Md., protocol 1041. On day 0, 42 BALB/c mice (female, Harlan Sprague-Dawley, 5-6 weeks) were shaved on the ventral surface of the right ear. 100 μl of the 5% oxazolone solution (Sigma) was then applied to the saved ear. The treated mice were then returned to the cage and kept for additional 6 days. On day 7, the mice were weighed and dosed orally with 10 ml/kg water or DA021 at either 30 mg/kg or 100 mg/kg or topically applied on both sides of both ears with 25 μl betamethasone. Thirty minutes after oral dosing, 5 μl of 3% oxazolone was applied to both sides of the right ear and 5 μl of acetone was applied to both sides of the contralateral ear. Twenty-four hours after 3% oxazolone/acetone application, the mice were euthanized, the ears removed and weighed.
To evaluate the efficacy and potency of DA021 in acute inflammation, an oxazolone-induced ear edema model was carried out in mice. Oxazolone-induced ear edema model is a commonly used skin inflammatory animal model. Oxazolone (OA) is an allergen that induces immunological responses that lead to surface edema. […] Betamethasone (BMS) which was used as a positive control, is a corticosteroid that is used as an anti-itching cream and other anti-inflammatory remedies.
Mice were then treated with betamethasone (BMS, mg, topical) or DA021 (mg/kg, p.o.) and the ears were removed and weighed. N=10 per group, significance (p-value) was calculated versus OA+vehicle using the Student's T-test, *=P≦1×10^−7, #=P≦1×10^−12.

cortical neurons = assay: Cortical neuron survival assay against amyloid beta peptide excitotoxicity (MTT); type: cell-based, Sprague-Dawley rats; design: key: black bars represent compounds with strong protective effect; striped bars represent compounds with moderate effect; light-dotted bars represent compounds without or with effect less than 25%; conditions: compounds 2 hours prior to co-treatment with Aβ25-35 (10 μM) 24 hours
Experimental: FIG. 14. Derivatives of DA001 protect the cortical neurons from Aβ25-35 excitotoxicity. Cortical neurons were incubated with compounds (at various [μM]) derived from of DA001 2 hours prior to co-treatment with Aβ25-35 (10 μM) for 24 hours. 3-(4,5-Dimethylthiazol-2-yl)-2,5-diphenyltetrazolium bromide (MTT) assay was performed 24 hours after Aβ25-35 treatment. Data are expressed as mean fold change±s.e.m. compared to solvent control (DMSO). Dark-dotted bar represents data without addition of Aβ25-35, open bar represents solvent control, black bars represent compounds with strong protective effect while striped bars represent compounds with moderate effect, light-dotted bars represent compounds without or with effect less than 25%. *=P<0.05, **=P<0.005.
Cortical neurons were prepared from embryonic day 18 Sprague-Dawley rats. After the cortices had been removed from the brain, isolated cells were plated onto Poly d-Lysine (PDL) (P0899, Sigma)-coated 48 well plates (150687, NUNC) at a density of 1×10^5 cell per well using Neurobasal Medium (NB) (21103-049, Gibco) with B27 supplement (17504-044, Gibco), penicillin/streptomycin (15140, Gibco) and 1 mM L-glutamine (25030, Gibco). The cell culture was incubated at 37° C. in a humidified atmosphere of 5% CO2 in air. Medium was changed to growth medium (Neurobasal Medium with penicillin/streptomycin and B27 supplement) after 3 hours. Half medium was changed with growth medium every 2-3 days to maintain the cells until day 7 in vitro (7 DIV). Serial dilutions of samples were prepared in growth medium and DMSO was used as vehicle control. For pre-treating part, half of the medium was removed from wells, and equal amount of diluted samples were replaced. Cells were then incubated for 2 hours at 37° C. in a humidified atmosphere of 5% CO2 in air. Cortical neurons were then incubated with DA001 derived compounds (at various concentrations in [μM]) together with Aβ25-35 (10 μM, Sigma) for 24 hours. Quantification of living cells are measured by MTT (3-(4,5-Dimethylthiazol-2-yl)-2,5-diphenyltetrazolium bromide, USB) assay performed 24 hours after Aβ25-35 treatment. Yellow MTT is reduced to purple formazan in the mitochondria of living cells. A solubilization solution [10% SDS (sodium dodecyl sulfate)/0.01 M hydrochloric acid] is added to dissolve the insoluble purple formazan product into a colored solution which was then quantified at wavelength 570 nm using a spectrophotometer (DYNEX Technologies).
A total of 90 derivatives of DA001 were synthesized, and their effect on cortical neurons survival against amyloid beta peptide (Aβ25-35) excitotoxicity was examined. […] Compounds with strong protective effect are DA002, DA005, DA007, DA016, DA018, DA019, DA042, DA044, DA060 and DA072.

[1] = system: C57BL/6 mice immunized with MOG; assay: Experimental autoimmune encephalomyelitis (EAE) behavioral scores; type: in vivo; conditions: 100 mg/kg oral daily from day of immunization
Experimental: FIG. 15 illustrates that DA001 improves the behavioral scores of mice with experimental autoimmune encephalomyelitis. C57BL/6 mice were immunized subcutaneously at both sides of their hind limbs with myelin oligodendrocyte glycoprotein (MOG)/Complete Freund's Adjuvant (CFA) kit (Hooke Laboratories) and performed as indicated in the manufacturer's instruction. Albumin/CFA kit (Hooke Laboratories) were used as an immunization control. Oral administration of DA001 at 100 mg/kg was given daily starting from the day of immunization. The vehicle (water) was given to mice injected with MOG or albumin daily via oral administration. Animals were weighed and monitored daily and behavioral impairment was quantified based on the clinical scale. The graph presented here is a composite of four separate EAE trials. **=p≦0.01.
FIG. 16 illustrates that DA002 improves the behavioral scores of mice with experimental autoimmune encephalomyelitis. C57BL/6 mice were immunized subcutaneously at both sides of their hind limbs with myelin oligodendrocyte glycoprotein (MOG)/Complete Freund's Adjuvant (CFA) kit (Hooke Laboratories) and performed as indicated in the manufacturer's instruction. […] Animals were weighed and monitored daily and behavioral impairment was quantified based on the clinical scale. *=p≦0.05.
C57BL/6 mice were immunized subcutaneously at both sides of their hind limbs with myelin oligodendrocyte glycoprotein (MOG)/Complete Freund's Adjuvant (CFA) kit (Hooke Laboratories) and performed as in manufacturer's instruction. […] Animals were weighed and monitored daily and behavioral impairment was quantified based on the clinical scale. […]
On day 0, six-week old male C57BL/6 mice (Hong Kong University of Science and Technology, Animal Care facility) were immunized with 100 μg of myelin oligodendrocyte glycoprotein peptide (MOG35-55)/complete Freund's Adjuvant (CFA) emulsion kit (Hooke Laboratories) was injected subcutaneously at both sides of the tail base. […] The animals were also weighed and the neurological impairment was quantified daily based on the previously published criteria. […]

[2] = system: LPS-induced TNF-α in serum; assay: Murine model of lipopolysaccharide-induced cytokine production; type: in vivo, Swiss-Webster mice; conditions: 10 mg/kg orally, positive control
Experimental: This is a contract research performed by Washington Biotechnology Inc., Columbia, Md., protocol 1077. Swiss-Webster mice (female, Harlan Sprague-Dawley, 5-6 weeks) were weighed and dosed orally with 10 ml/kg water, prednisolone at 10 mg/kg, or DA021 at 30 mg/kg or 100 mg/kg. Thirty minutes after oral dosing, lipopolysaccharides (LPS) at 2 mL/kg was injected. Two hours after LPS injection, the mice were anesthetized and exsanguinated into serum separator micro-container tubes. The blood was processed to serum. The serum samples were assayed for tumor necrosis factor-α (TNFα) concentration by ELISA (Pierce) according to the manufacturer's protocol.
Evaluation of the efficacy and potency of orally administered DA021 to inhibit the lipopolysaccharide (LPS)-induced release of tumor necrosis factor-α (TNF-α) in mice was carried out. LPS is a widely used endotoxin, isolated from the bacteria, E. coli in inducing acute inflammation in an organism. Prednisolone is a synthetic corticosteroid drug that is commonly used in inflammatory reactions. It is a broad range immunosuppressant. Based on FIG. 29, there was a marked increase in the amount of TNF-α in serum upon LPS treatment in mice.
Two hours after LPS injection, the serum was collected from the mice. The serum samples were assayed for tumor necrosis factor-α (TNFα) concentration by ELISA (Pierce) according to the manufacturer's protocol. N=10, significance was calculated versus LPS+vehicle using the Student's T-test, *=p≦0.05, #=p≦1×10^−4.

## C[C@H]1C[C@H]2[C@@H]3CCC4=CC(=O)C=C[C@]4(C)[C@@]3(F)[C@@H](O)C[C@]2(C)[C@@]1(O)C(=O)CO [Betamethasone, reference compound]
BALB/c mice
  Change in Ear Weight (mg), Average: 17.4 mg
  Change in Ear Weight, % Inhibition: 75.4%

## C=C(C)[C@@H]1CC[C@]2(C(=O)O)CC[C@]3(C)C(CCC4[C@@]5(C)CC[C@H](O)[C@@](C)(CO)[C@@H]5CC[C@]43C)C12 (stereo partly shown) [DA002]
Cortical neurons
  protective effect against Aβ25-35 excitotoxicity: strong
[1]
  EAE scores vs vehicle-treated EAE mice: significant decrease in the EAE scores

## C=C(C)[C@@H]1CC[C@]2(C(=O)O)CC[C@]3(C)C(CCC4[C@@]5(C)CC[C@H](OC(C)=O)[C@@](C)(CO)[C@@H]5CC[C@]43C)C12 (stereo partly shown) [DA007]
Cortical neurons
  protective effect against Aβ25-35 excitotoxicity: strong

## C=C(C)[C@@H]1CC[C@]2(C(=O)O)CC[C@]3(C)C(CCC4[C@@]5(C)CCC(=O)[C@@](C)(COC(C)=O)[C@@H]5CC[C@]43C)C12 (stereo partly shown) [DA016]
Cortical neurons
  protective effect against Aβ25-35 excitotoxicity: strong

## C=C(C)[C@@H]1CC[C@]2(C(=O)O)CC[C@]3(C)C(CCC4[C@@]5(C)CCC(=O)[C@@](C)(CO)[C@@H]5CC[C@]43C)C12 (stereo partly shown) [DA018]
Cortical neurons
  protective effect against Aβ25-35 excitotoxicity: strong

## C=C(C)[C@@H]1CC[C@]2(C(=O)O)CC[C@]3(C)C(CCC4[C@@]5(C)CC/C(=N\O)[C@@](C)(CO)[C@@H]5CC[C@]43C)C12 (stereo partly shown) [DA019]
Cortical neurons
  protective effect against Aβ25-35 excitotoxicity: strong

## C=C(C)[C@@H]1CC[C@]2(C(=O)NCc3ccccc3)CC[C@]3(C)C(CCC4[C@@]5(C)CC[C@H](O)[C@@](C)(CO)[C@@H]5CC[C@]43C)C12 (stereo partly shown) [DA042]
Cortical neurons
  protective effect against Aβ25-35 excitotoxicity: strong

## C=C(C)[C@@H]1CC[C@]2(C(=O)O)CC[C@]3(C)C(CCC4[C@@]5(C)CC[C@H](O[C@@H]6OC[C@H](OC(C)=O)[C@H](OC(C)=O)[C@H]6O[C@@H]6O[C@@H](C)[C@H](OC(C)=O)[C@@H](OC(C)=O)[C@H]6OC(C)=O)[C@@](C)(COC(C)=O)[C@@H]5CC[C@]43C)C12 (stereo partly shown) [DA044]
Cortical neurons
  protective effect against Aβ25-35 excitotoxicity: strong

## C=C(COC(C)=O)[C@@H]1CC[C@]2(C(=O)O)CC[C@]3(C)C(CC[C@@H]4[C@@]5(C)CC[C@H](OC(C)=O)[C@@](C)(COC(C)=O)[C@@H]5CC[C@]43C)[C@@H]12 (stereo partly shown) [DA060, 3,23,30-Triacetoxy-betulinic acid]
Cortical neurons
  protective effect against Aβ25-35 excitotoxicity: strong

## C=C(CNCc1ccccc1)[C@@H]1CC[C@]2(C(=O)O)CC[C@]3(C)C(CC[C@@H]4[C@@]5(C)CC[C@H](OC(C)=O)[C@@](C)(COC(C)=O)[C@@H]5CC[C@]43C)[C@@H]12 (stereo partly shown) [DA072, 30-N-Benzylamino-3,23-diacetoxy-betulinic acid]
Cortical neurons
  protective effect against Aβ25-35 excitotoxicity: strong

## C[C@]12C=CC(=O)C=C1CC[C@@H]1[C@@H]2[C@@H](O)C[C@@]2(C)[C@H]1CC[C@]2(O)C(=O)CO [Prednisolone, reference compound]
[2]
  LPS-induced TNF-α level: dramatically decreased
